From ChEMBL document CHEMBL3875216, “Synthesis of antimicrobial glucosamides as bacterial quorum sensing mechanism inhibitors” (Bioorg Med Chem, 2017)

Experiments:
[1] = system: Pseudomonas aeruginosa; experiment: Inhibition of LasR-dependent quorum sensing activity in Pseudomonas aeruginosa MH602 harboring GFP-fused […] LasB promoter assessed as inhibition of 3-oxo-dodecanoyl HSL-induced GFP expression at 500 uM measured after 8 hrs by fluorescence assay relative to control
[2] = system: Pseudomonas aeruginosa PA14; experiment: Inhibition of quorum sensing-regulated pyocyanin production in Pseudomonas aeruginosa PA14 at 2 mM after 24 hrs relative to control
[3] = system: Escherichia coli; experiment: Inhibition of LuxR-dependent quorum sensing activity in Escherichia coli MT102 harboring pJBA132 assessed as inhibition of OHHL-induced GFP expression at 2 mM measured after 24 hrs by fluorescence assay relative to control
[4] = system: Escherichia coli; experiment: Inhibition of LuxR-dependent quorum sensing activity in Escherichia coli MT102 harboring pJBA132 assessed as inhibition of OHHL-induced GFP expression at 500 uM measured after 8 hrs by fluorescence assay relative to control
[5] = system: Pseudomonas aeruginosa; experiment: Growth inhibition of Pseudomonas aeruginosa MH602 at 2 mM after 24 hrs relative to control; settings: MH602, 24 h, read-out: GI
[6] = system: Pseudomonas aeruginosa; experiment: Growth inhibition of Pseudomonas aeruginosa MH602 at 500 uM after 8 hrs relative to control; settings: MH602, 8 h, read-out: GI
[7] = system: Escherichia coli; experiment: Growth inhibition of Escherichia coli MT102 at 500 uM after 8 hrs relative to control; settings: MT102, 8 h, read-out: GI
[8] = system: Pseudomonas aeruginosa; experiment: Growth inhibition of Pseudomonas aeruginosa MH602 at 2 mM after 8 hrs relative to control; settings: MH602, 8 h, read-out: GI
[9] = system: Pseudomonas aeruginosa; experiment: Inhibition of LasR-dependent quorum sensing activity in Pseudomonas aeruginosa MH602 harboring GFP-fused […] LasB promoter assessed as inhibition of 3-oxo-dodecanoyl HSL-induced GFP expression at 2 mM measured after 24 hrs by fluorescence assay relative to control
[10] = system: Pseudomonas aeruginosa; experiment: Growth inhibition of Pseudomonas aeruginosa MH602 at 1 mM after 8 hrs relative to control; settings: MH602, 8 h, read-out: GI
[11] = system: Escherichia coli; experiment: Inhibition of LuxR-dependent quorum sensing activity in Escherichia coli MT102 harboring pJBA132 assessed as inhibition of OHHL-induced GFP expression at 1 mM measured after 24 hrs by fluorescence assay relative to control
[12] = system: Pseudomonas aeruginosa; experiment: Growth inhibition of Pseudomonas aeruginosa MH602 at 500 uM after 24 hrs relative to control; settings: MH602, 24 h, read-out: GI
[13] = system: Escherichia coli; experiment: Inhibition of LuxR-dependent quorum sensing activity in Escherichia coli MT102 harboring pJBA132 assessed as inhibition of OHHL-induced GFP expression at 1 mM measured after 8 hrs by fluorescence assay relative to control
[14] = system: Escherichia coli; experiment: Growth inhibition of Escherichia coli MT102 at 1 mM after 24 hrs relative to control; settings: MT102, 24 h, read-out: GI
[15] = system: Escherichia coli; experiment: Inhibition of LuxR-dependent quorum sensing activity in Escherichia coli MT102 harboring pJBA132 assessed as inhibition of OHHL-induced GFP expression at 2 mM measured after 8 hrs by fluorescence assay relative to control
[16] = system: Escherichia coli; experiment: Growth inhibition of Escherichia coli MT102 at 2 mM after 8 hrs relative to control; settings: MT102, 8 h, read-out: GI
[17] = system: Escherichia coli; experiment: Growth inhibition of Escherichia coli MT102 at 500 uM after 24 hrs relative to control; settings: MT102, 24 h, read-out: GI
[18] = system: Escherichia coli; experiment: Growth inhibition of Escherichia coli MT102 at 1 mM after 8 hrs relative to control; settings: MT102, 8 h, read-out: GI
[19] = system: Pseudomonas aeruginosa; experiment: Inhibition of LasR-dependent quorum sensing activity in Pseudomonas aeruginosa MH602 harboring GFP-fused […] LasB promoter assessed as inhibition of 3-oxo-dodecanoyl HSL-induced GFP expression at 1 mM measured after 24 hrs by fluorescence assay relative to control
[20] = system: Pseudomonas aeruginosa; experiment: Inhibition of LasR-dependent quorum sensing activity in Pseudomonas aeruginosa MH602 harboring GFP-fused […] LasB promoter assessed as inhibition of 3-oxo-dodecanoyl HSL-induced GFP expression at 1 mM measured after 8 hrs by fluorescence assay relative to control
[21] = system: Pseudomonas aeruginosa; experiment: Growth inhibition of Pseudomonas aeruginosa PA14 at 2 mM after 24 hrs relative to control; settings: 2000 µM
[22] = system: Pseudomonas aeruginosa; experiment: Inhibition of LasR-dependent quorum sensing activity in Pseudomonas aeruginosa MH602 harboring GFP-fused […] LasB promoter assessed as inhibition of 3-oxo-dodecanoyl HSL-induced GFP expression at 2 mM measured after 8 hrs by fluorescence assay relative to control
[23] = system: Pseudomonas aeruginosa; experiment: Growth inhibition of Pseudomonas aeruginosa MH602 at 1 mM after 24 hrs relative to control; settings: MH602, 24 h, read-out: GI
[24] = system: Escherichia coli; experiment: Growth inhibition of Escherichia coli MT102 at 2 mM after 24 hrs relative to control; settings: MT102, 24 h, read-out: GI
[25] = system: Escherichia coli; experiment: Inhibition of LuxR-dependent quorum sensing activity in Escherichia coli MT102 harboring pJBA132 assessed as inhibition of OHHL-induced GFP expression at 500 uM measured after 24 hrs by fluorescence assay relative to control
[26] = system: Pseudomonas aeruginosa PA14; experiment: Inhibition of quorum sensing-regulated biofilm formation in Pseudomonas aeruginosa PA14 at 2 mM after overnight incubation by crystal violet staining based assay relative to control
[27] = system: Pseudomonas aeruginosa; experiment: Inhibition of LasR-dependent quorum sensing activity in Pseudomonas aeruginosa MH602 harboring GFP-fused […] LasB promoter assessed as inhibition of 3-oxo-dodecanoyl HSL-induced GFP expression at 500 uM measured after 24 hrs by fluorescence assay relative to control

CC(=O)OC[C@H]1O[C@@H](OC(C)=O)[C@H](NC(=O)Cc2ccc(Br)cc2)[C@@H](OC(C)=O)[C@@H]1OC(C)=O
inhibition [1]: 4.4%
inhibition [2]: 0.8%
inhibition [3]: 71.2%
inhibition [4]: 8.4%
inhibition at 2000 µM [5]: 0%
inhibition at 500 µM [6]: 0%
inhibition at 500 µM [7]: 0%
inhibition at 2000 µM [8]: 0%
inhibition [9]: 13.1%
inhibition at 1000 µM [10]: 0%
inhibition [11]: 36.1%
inhibition at 500 µM [12]: 0%
inhibition [13]: 5.1%
inhibition at 1000 µM [14]: 0%
inhibition [15]: 8.1%
inhibition at 2000 µM [16]: 0%
inhibition at 500 µM [17]: 0%
inhibition at 1000 µM [18]: 0%
inhibition [19]: 10%
inhibition [20]: 6.8%
growth inhibition (GI) [21]: Non-Toxic
inhibition [22]: 3.2%
inhibition at 1000 µM [23]: 0%
inhibition at 2000 µM [24]: 0%
inhibition [25]: 8.5%
inhibition [26]: 26.2%
inhibition [27]: 11.2%
